Test results as given in ChEMBL document CHEMBL1137552, “Modifications of the chemical structure of terpenes in antiplasmodial and antifungal drug research” (Bioorg Med Chem Lett, 2007).
Converted amounts (≈) assume the structure as drawn.

Tests used:
[1] = test system: Candida albicans; assay: Antifungal activity against Candida albicans ATCC 90028 after 24 hrs; assay type: functional; conditions: ATCC 90028, 24 h
[2] = test system: Candida albicans; assay: Antifungal activity against Candida albicans ATCC 90028 after 48 hrs; assay type: functional; conditions: ATCC 90028, 48 h
[3] = test system: Plasmodium falciparum; assay: Antiplasmodial activity after 48 hrs against chloroquine-resistant Plasmodium falciparum FcM29-Cameroon by [3H]hypoxanthine uptake; assay type: functional, organism-based

Structure (SMILES)	MIC [1] [µg/mL]	MIC [2] [µg/mL]	IC50 [3] [µM]
CCN(CC)CCCC(C)Nc1ccnc2cc(Cl)ccc12 (stereo not drawn) [CHLOROQUINE]	> 200	> 200	
CC(C)=CCC[C@@]1(C)OCC2=CC(=O)CC21 (stereo partly drawn)	> 200	> 200	1.8
C#CCOC/C=C(\C)CCC=C(C)C	> 200	> 200	122
CC1CC(=O)O[C@@H]2C[C@H](C)CC[C@@H]12 (stereo partly drawn)	> 200	> 200	470
CC(C)=CCCC(C)CCO (stereo not drawn) [CITRONELLOL]	> 200	> 200	192
C#CCO[C@@](C)(C=C)CCC=C(C)C	> 200	> 200	39
CC(C)=CCC/C(C)=C/CO [GERANIOL]	> 200	> 200	52
C=C(C)[C@H]1CC=C(C)CC1 [D-LIMONENE]	> 200	> 200	66
C=C(C)[C@@H]1CC[C@@H](C)C[C@H]1O [ISOPULEGOL]	> 200	> 200	282
C=CC(C)(O)CCC=C(C)C (stereo not drawn) [LINALOOL]	> 200	> 200	519
Nc1nc(=O)[nH]cc1F [FLUCYTOSINE]		0.75 (≈ 5.81 µM)	
C#CCOCC1=CC[C@@H](C(=C)C)CC1	> 200	> 200	33
C=C(C)[C@@H]1CC=C(CO)CC1 [PERILLYL ALCOHOL]	> 200	> 200	184
C=C(C)[C@H]1CCC23COC=CC2C3C1 (stereo partly drawn)	> 200	> 200	> 100
C=CC1=C(C)[C@@H]2CC[C@@H](C)C[C@H]2OC1	> 200	> 200	> 100
C#CCO[C@@H]1C[C@H](C)CC[C@H]1C(=C)C	> 200	> 200	31
C[C@@H]1CC[C@H]2[C@@H](C)C(=O)O[C@@H]3O[C@@]4(C)CC[C@@H]1[C@]32OO4 [ARTEMISININ]	> 200	> 200	0.007
